Molecules are shown by their SMILES. Where only a bound is given, the exact number is not on record here.

In general, melting point refers to the temperature of the solid-liquid transition.

As to `CCOC(=O)NC=C(C(=O)OCC)c1ccc(Cl)cc1`, the melting point is 72 °C. For `COC(=O)c1ccc(Sc2cccc(OCCCCl)c2)cc1`, the melting point fell in the range of 47 to 49 °C.

The compound `O=C(OC1c2nccnc2C(=O)N1c1ccc2ccc(Cl)nc2n1)N1CCCCC1` (configuration not stated) came in with a melting point of 249 °C.

Compound `N#Cc1oc(-c2ccc(Cl)cc2)c2ccccc12` yielded a melting point of 128 to 130 °C. As for `Cc1cc(C)cc(C(=O)c2c(C(C)C)c(=O)[nH]c(=O)n2C/C=C/CCl)c1`, the figure is 178 to 179 °C. `O=C(O)C[C@@H](NC(=O)CN1C[C@H](c2ccccc2)Oc2ccc(NC(=O)NCc3ccccc3)cc2C1=O)c1ccccc1` yielded a melting point of 138 to 140 °C. On to `CCC1(C2CCCC2)Cc2cc(OC)c(Cl)c(Cl)c2C1=O` (configuration not stated), for which the melting point is 163 °C. Compound `O=C1C(=C(O)C(F)(F)F)CCc2ccccc21` had a melting point of 48 to 49 °C. As for `CCOc1cc(N=Nc2ccc(OC)cc2)c(O)c(C(C)(C)C)c1`, the figure is 105 to 108 °C; as for `CN(CCN1CCC(=C(c2ccc(F)cc2)c2ccc(F)cc2)CC1)c1nc(=O)cc[nH]1`, 164 to 165 °C. The same measure for `COc1ccccc1N1CCN(CCCCc2c[nH]c3ccccc23)CC1`: 113 to 115 °C; for `CC1(C)CC(C)(C)c2cc(CC(=O)O)ccc21`: 143 °C. In turn, `Cc1ccccc1P(=O)(Cc1ccc2ccccc2c1-c1c(CP(=O)(c2ccccc2C)c2ccccc2C)ccc2ccccc12)c1ccccc1C` registered a melting point of 231 to 234 °C. Take `CCOC(=O)COc1ccc2cc(Br)ccc2c1Br`: the melting point fell in the range of 104 to 106 °C.

For `CC1(C)[C@@H]2CC[C@@]1(C)C[C@H]2OC(=O)C1CCC(C(=O)O[C@@H]2C[C@]3(C)CC[C@H]2C3(C)C)CC1` (some centres not stated), the melting point was found to be 77 °C. With `CC(O)=C(C#N)C(=O)Cc1ccc(Cl)cc1`, the melting point was 50 to 53 °C.

For the compound `CC(C)c1ccc(S(=O)(=O)c2ccccc2)cc1S(=O)(=O)NC1CCN(C(=O)c2ccccc2)CC1`, the melting point is 225 °C. `Clc1ccc2scc(-c3ccncc3)c2c1` showed a melting point of 90 to 91 °C.

`COc1ccccc1[C@@]1(O)[C@H](O)CC(c2ccccc2)(c2ccccc2)[C@@H]2CN(C(=O)Cc3c[nH]c4ccc(F)cc34)C[C@@H]21` (racemic) registered a melting point of 248 °C. For `COc1cc(NC(C)C)ccc1CN1C(=O)C(C)(c2ccccc2Cl)c2cc(Cl)ccc21` (configuration not stated), the melting point was found to be 137 °C. For `CC(=O)c1c(S(=O)(=O)C(F)(F)F)c(C#N)nn1-c1c(Cl)cc(C(F)(F)F)cc1Cl`, the melting point stood at 161 °C. The same measure for `N#Cc1ccc2cc(OCCC(c3ccccc3)(c3ccccc3)c3ccccc3)ccc2c1`: 207 to 208 °C. The compound `Cn1ncnc1-n1cc(C(=O)O)c(=O)c2cc(F)c(F)cc21` returned a melting point of 254 to 264 °C.

On to `Cc1cccc(-c2csc(N3C(=O)c4ccccc4C3=O)c2C(=O)O)c1`, for which the melting point amounted to 195 °C. As for `O=C(O)c1ccccc1CNC1CCOC1=O` (configuration not stated), the figure is 112 to 114 °C; as for `Oc1ccc(Cc2ccc(OCC(O)CCc3cccnc3)cc2)cc1` (configuration not stated), 98 to 99 °C; as for `C=C(CCCO)c1ccc(C(=O)OC)cc1`, 28 to 30 °C. The same measure for `CCOC(=O)c1ccc(NC(=O)NCCn2c(C)ccc2C)cc1`: 181 to 182 °C; for `O=C1OCCN1c1ccc([N+](=O)[O-])c(C(F)(F)F)c1`: 112 to 113 °C. As for `Cn1cc(C(=O)CCC(=O)O)nc1-c1ccccc1`, the figure is 191 to 192 °C; as for `C[C@H](NC(=O)OC(C)(C)C)C(=O)NC1N=C(c2ccccn2)c2ccccc2N(C)C1=O` (some centres not stated), 228 to 229 °C. `COC(=O)c1nc2ccc(NCCCN3CCC(OC(c4ccccc4)c4ccccc4)CC3)nn2n1` gave a melting point of 93 to 96 °C.

In turn, `COC1(OC)CCC2=C3C(c4ccc(C5OCC(C)(C)CO5)cc4)CC4(C)C(=O)CCC4C3CCC2(O)C1` (configuration not stated) yielded a melting point of 194 to 202 °C.

Consider `O=C1NCC(c2c[nH]c3ccccc23)C1c1cn2c3c(cccc13)CCC2` (configuration not stated), for which the melting point was 241 to 243 °C. As for `Cc1c(CO)c(Cl)nc2ccccc12`, the figure is above 260 °C; as for `CC(=O)CCCCC(=O)Nc1ccc(CC(NC(C)=O)C(=O)NCC(=O)OCc2ccccc2)cc1` (configuration not stated), 178 to 180 °C; as for `O=C(NC(=S)Nc1cc(Cl)cc(C(F)(F)F)c1Cl)c1c(F)cccc1F`, 136 to 141 °C. As for `Clc1ccc2nc(Cl)cn2c1`, the figure is 155 to 156 °C. The same measure for `CNC(=O)N(C)C(=O)Nc1nc(C(Cl)(Cl)Cl)ns1`: 94 °C; for `Cc1cc(C)c2cccc(OCc3c(Cl)ccc(S(=O)(=O)N4CCC[C@H]4C(=O)NCCNC(=O)COc4ccc(C=NN)cc4)c3Cl)c2n1`: 156 to 160 °C; for `Cc1cc(NS(=O)(=O)c2ccccc2)cc(C)c1S(=O)(=O)C(Cl)(Cl)[N+](=O)[O-]`: 112 to 114 °C. Compound `Cc1cccc(-c2cc3cnc(N)nc3nc2NC(=O)NC(C)(C)C)c1C` had a melting point of 326 to 330 °C. The compound `CCCCCCCc1ccc(C(=O)c2cccc(C(=O)O)c2)cc1` showed a melting point of 124 to 126 °C. As for `COc1cc(OC)c(-c2cccs2)cc1/C=C/C(=O)c1ccc(S(=O)(=O)Nc2ccc(Cl)cn2)cc1`, the figure is 228 to 229 °C; as for `CCOC(OCC)C(O)(Cc1c(NC(=O)C(C)(C)C)cnc(Cl)c1C)c1ccccc1` (configuration not stated), 133 °C; as for `CC(C)(C)c1cc(OCc2ccc(C#N)cc2)cc(C(C)(C)C)c1O`, 166 to 169 °C.

As to `COC(=O)c1c(N)ncn1C(c1ccccc1)c1ccccc1`, the melting point fell in the range of 199 to 201 °C. `COc1ccc(S(N)(=O)=O)cc1C(N)=O` showed a melting point of 178 °C.

`OC(c1ccccc1)(c1ccc(C(F)(F)F)cc1)c1nccn1Cc1ccccc1` (configuration not stated) displayed a melting point of 167 to 169 °C.

As to `COc1ccc(C(Cl)C(C)(C)[N+](=O)[O-])cc1OC` (configuration not stated), the melting point lay within 109 to 110 °C. The same measure for `N#CSc1nc(I)ncc1I`: 183 to 185 °C; for `Nc1ccc(-c2nc3cc(N)ccc3o2)cc1`: 226 to 228 °C. The same measure for `CC(C)N(CCC12CC3CC(CC(C3)C1)C2)C(=O)NCCCc1ccncc1`: 132 to 134 °C. The same measure for `COc1cc2c(c(C(C)C)c1OC)C(=O)NS2(=O)=O`: 186 to 188 °C. As for `O=C(O)c1ccc(-n2nnnc2S)cc1`, the melting point was found to be 198 °C. Take `COc1ccc(C2=NN(C3CCN(C(=O)c4ccccc4)CC3)C(=O)CC2)cc1OC`: the melting point fell in the range of 152 to 154 °C. The same measure for `CCc1ccc([N+](=O)[O-])cc1CNC(C)=O`: 123 to 128 °C; for `CCc1nc2c(cnn2CC)c(NC2CCOCC2)c1CNC(=O)c1cccc(C(=O)NCc2ccc(F)c(-c3cccc(CN4CCNC(=O)C4)c3)c2)c1`: 147 to 150 °C; for `CCCOC(=O)C1=C(N)NC(C)=C(C#N)C1c1cccc2ncc(-c3ccccc3)cc12` (configuration not stated): 237 °C. The same measure for `CS(=O)(=O)Oc1cc(CC(=O)O)on1`: 101 to 103 °C; for `CC1=C(Cc2cccc(Br)c2)C(=O)C2C=CC=CC2C1=O` (configuration not stated): 108 to 109 °C; for `CCOc1ccc(S(=O)(=O)c2ccc(C)nc2Nc2c(C)cc(C)cc2C)cc1`: 157 to 159 °C. The same measure for `COc1cccc(C2COc3c(C)c(C)c(NC(=O)CC(C)(C)C)c(C)c32)c1` (configuration not stated): 169 to 170 °C; for `CC(C)(CCOc1ccc(Cl)cc1)C(=O)Cn1cncn1`: 188 to 190 °C; for `CC(=O)Nc1cscn1`: 176 °C. For `CCOC(=O)NS(=O)(=O)c1ccc2c(c1)CCO2`, the melting point lay in the range of 118 to 119 °C. As for `Cc1ccc(-c2csc(NC(=O)Nc3nc(-c4ccc(C)cc4)cs3)n2)cc1`, the figure is above 300 °C; as for `C[C@@H]1CN(CC(=O)Nc2ccccc2C(F)(F)F)C[C@H](C)N1c1ncnc2sccc12`, 154 to 155 °C; as for `CCOC(=O)C1=CC(C(=O)c2cc(C)ccc2O)=CN2CCc3c([nH]c4ccccc34)C12C(=O)OCC` (configuration not stated), 208 °C. The same measure for `COc1cc(N)c(Cl)cc1C(=O)CCC1CCNCC1`: 138 to 140 °C; for `NC(=O)CN1CCN(C(=O)c2cc(C(F)(F)F)cc(C(F)(F)F)c2)[C@H](Cc2c[nH]c3ccccc23)C1`: 170 to 173 °C. With `Cc1ccc(S(=O)(=O)OCC2CN(C)c3ccc(Cl)cc3O2)cc1` (configuration not stated), the melting point was in the range of 65 to 67 °C. As for `O=C(O)c1csc(Nc2ccc(Cl)c(C(F)(F)F)c2)n1`, the figure is 254 to 256 °C. As for `CC(=O)c1cccc(N2C(=O)CCSC2=S)c1`, the figure is 197 to 199 °C; as for `CC(C)CC(C)Oc1c(-c2ccc(S(C)(=O)=O)cc2)cnn(-c2ccc(F)c(F)c2)c1=O` (configuration not stated), 132 to 133 °C; as for `COc1cn(-c2cccc(C(F)(F)F)c2)nc(C(=O)C=CN(C)C)c1=O`, 176 to 178 °C.

`CCCCC(CC)COC(=O)COc1cc(F)ccc1C(=O)NCc1cccc([N+](=O)[O-])c1` (configuration not stated) showed a melting point of 59 to 60 °C.

In turn, `COc1ccc(N2CCOCC2)c2sc(C(N)=O)nc12` had a melting point of 228 to 230 °C. In the case of `COc1ccccc1OC(CCN)c1ccccc1` (configuration not stated), the melting point fell in the range of 118 to 121 °C.

`O=C(O)CCc1cn(Cc2ccc(OCc3csc(-c4cccs4)n3)cc2)cc1-c1ccccc1`: the melting point lay within 106 to 107 °C. As for `CCCCCCCCCCC1(CCCCCCCCCC)c2cc(-c3cccs3)ccc2-c2ccc(-c3cccs3)cc21`, the figure is 59.9 to 60.8 °C.

In the case of `Cc1cc2c(-c3ccccc3)c(C(=O)O)oc(=O)c2cc1C`, the melting point was in the range of 265 to 268 °C.

For the compound `COC(=O)C(Oc1ccc(Cl)cc1)c1ccc(S(=O)c2ccc(Cl)cc2)cc1` (configuration not stated), the melting point is 134 to 144 °C. In the case of `COc1cc(OC)nc(C(=O)c2cccc(Cl)c2C(=O)N(C)C)n1`, the melting point was 141 to 142 °C. The same measure for `COCCNC(=O)c1n[nH]cc1NC(=O)c1ccccn1`: 166 to 167 °C. As for `CC(=S)NCC1CN(c2ccc(N(C)C=O)c(F)c2)C(=O)O1` (configuration not stated), the figure is 105 to 107 °C; as for `CC(C)COC(=O)ON1C(=O)CCC1=O`, 33 to 35 °C.

These data come from a melting point compilation (Tetko et al.; mined from patent text by program, amines drawn as free bases though some values may be those of a salt).
